Patent US12600696B2 (XENIOPRO GMBH, priority 2017, dated 2026)

What was measured:
Type in all cases: cell-based
[1] = system: HPEKp cells (human epidermal keratinocyte progenitors, pooled); test: alamarBlue proliferation assay with HPEKp cells; conditions: 120 h, relative to DMSO basis level 1.0, read-out: weighted arithmetic mean (AVEw) of normalized fluorescence intensity, activity range
Summary of the method: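 Pooled HPEKp cells in CnT-Prime medium, 2000 cells/well, were exposed to compound at 0.1% DMSO for 5 days. Growth was read by alamarBlue fluorescence (ex 560, em 590 nm) and normalized to the DMSO mean, with outliers excluded, as a weighted mean ± combined SD. Inhibition was judged at 10 μM, with mean+SD ≤0.9 as the criterion.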

[2] = system: CAL-27 cells (human tongue squamous cell carcinoma cells); test: alamarBlue proliferation assay with CAL-27 cells; conditions: for activity at 40 µM / activity at 20 µM: Homo sapiens, 120 h; for activity at 40 µM: relative to DMSO basis level 1.0, read-out: weighted arithmetic mean (AVEw) of normalized fluorescence intensity, activity range; for activity at 20 µM: relative to DMSO baseline level of 1.0, read-out: AVEw, weighted arithmetic mean of normalized fluorescence intensity values (Activity Range), CAL-27 proliferation
Summary of the method: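 CAL-27 cells seeded at 2000 per well, exposed to compound in 0.1% DMSO for 5 days, then alamarBlue fluorescence (ex 560/em 590 nm). Values normalized to DMSO wells (1.0) as weighted means with combined standard deviation; growth inhibition judged at 20 μM reference concentration.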

[3] = system: TT cells (human medullary thyroid carcinoma cells); test: alamarBlue proliferation assay with TT cells; conditions: for activity at 40 µM: Homo sapiens, 120 h, relative to DMSO basis level 1.0, read-out: weighted arithmetic mean (AVEw) of normalized fluorescence intensity, activity range
Experimental: The antiproliferative activities of compounds falling under formula I, formula II, formula III, formula IV and formula V were investigated on cells or cell lines originating from a disorder of the myeloid cell compartment, the neuroendocrine system, the cervix, and the mucosal epithelium, as well as from the skin epithelium. To this end, HL-60 cells, TT cells, HeLa cells, CAL-27 cells and human primary epidermal keratinocytes (HPEK) were seeded into 96-well plates suitable for fluorescence assays (CORNING #3598) at following initial cell numbers: 1000 cells per well for HL-60; 9000 cells per well for TT; 2000 cells per well for HeLa, 2000 cells per well for CAL-27, 2000 cells per well for HPEK. The cells were treated with compounds at indicated final concentrations (diluted from the 1000× stock-solutions in DMSO to a final DMSO concentration of 0.1% v/v) or with the empty carrier DMSO at 0.1% v/v as control for 5 days. At day 5 after starting the treatments the cells were subjected to the alamarBlue® Proliferation Assay (Bio-Rad Serotec GmbH, BUF012B) according to the protocol of the manufacturer. The readout was taken with a multi-well plate-reader in the fluorescence mode with applying a filter for excitation at 560 nm (band width 10 nm) and for emission at 590 nm (band width 10 nm). Resveratrol (RES) treatment was included as control for growth inhibition.
The assays were performed in duplicate or more replicates of independent single experiments each containing a six-fold replicate for every condition. For every individual plate, the measured fluorescence intensity values of the conditions with compound treatment were normalized against the corresponding equally weighted arithmetic mean of the fluorescence intensity values of the six DMSO treated control wells in order to obtain the relative values to a baseline level of 1.0. The statistical calculations were performed in analogy to the luciferase assay as described above. To this end, two independent outlier analyses were performed according to the methods by Peirce and Chauvenet (Ross, Journal of Engineering Technology 2003, 1-12). Outliers confirmed by at least one of the methods were excluded from the calculations but not more than one value out of six per compound within a single experiment. The weighted arithmetic mean AVEw for each compound was calculated from the normalized values over all independent replicates of the single experiments comprising the six replicates each. The corresponding standard deviation for the weighted arithmetic mean was calculated according to the method described by Bronstein et al. (Bronstein, Semendjajew, Musiol, Mühlig, Taschenbuch der Mathematik, 5th edition 2001 (German), publisher: Verlag Harri Deutsch, Frankfurt am Main and Thun) and was combined with the Gauß′ error propagation associated with the performed calculation for the normalization. The resulting standard deviation is herein referred to as “combined standard deviation”.
TT cells were cultivated according to the protocol of the provider in F-12K medium (Fisherscientific, #11580556, or ATCC, #ATCC-30-2004) containing 10% fetal bovine serum (Fisherscientific, #15517589).
A compound is considered as a growth inhibitor of TT cells, if—at a reference concentration of 40 μM—the weighted arithmetic mean of the normalized fluorescence intensity values after addition of the corresponding combined standard deviation amounts to 0.9 or lower, in particular to 0.8 or lower, 0.7 or lower, 0.6 or lower, 0.4 or lower, and 0.2 or lower, relative to the overall basis level of 1.0. The overall basis level was calculated as the weighted arithmetic mean of all normalized values from the DMSO control measurements in analogy to the calculations performed for the test-compounds. The corresponding combined standard deviation for the DMSO values amounts to less than 1·10^−2.

[4] = control RES at 20 μM, relative to DMSO basis level 1.0

| Compound | activity at 10 µM [1] [%] | activity at 40 µM [2] [%] | activity at 40 µM [3] [%] | activity at 20 µM ([2]; 5 days) [%] | AVEw, weighted arithmetic mean of normalized fluorescence intensity values, CAL-27 proliferation ([2]; 40 μM (control RES 40 μM), 5 days, relative to DMSO baseline level of 1.0) | weighted arithmetic mean (AVEw) of normalized fluorescence intensity [2, 4] | weighted arithmetic mean (AVEw) of normalized fluorescence intensity [3, 4] |
| --- | --- | --- | --- | --- | --- | --- | --- |
| NC(=O)c1ccc(Oc2ccc(C3CC4CCC3C4)cc2)cc1 (racemic) [Compound 159, (±)-4-(4-(Bicyclo[2.2.1]heptan-2-yl)phenoxy)benzamide] | 0 to 20 | 60 to 70 | 80 to 90 | – | – | – | – |
| CCCc1ccc(Oc2ccc(C(=O)NO)cc2)cc1 [Compound 166, N-hydroxy-4-(4-propylphenoxy)benzamide] | – | 0 to 20 | 20 to 40 | 20 to 40 | – | – | – |
| CCC(C)(C)c1ccc(Oc2ccc(C(=O)NO)cc2)cc1 [Compound 171, N-hydroxy-4-(4-(tert-pentyl)phenoxy)benzamide] | – | – | 20 to 40 | 0 to 20 | – | – | – |
| O=C(NO)c1ccc(Oc2ccc(C3CCCCC3)cc2)cc1 [Compound 182, 4-(4-cyclohexylphenoxy)-N-hydroxybenzamide] | 0 to 20 | – | 20 to 40 | 20 to 40 | – | – | – |
| O=C(NO)c1ccc(Oc2ccc(C34CC5CC(CC(C5)C3)C4)cc2)cc1 [Compound 186, 4-(4-(Adamantan-1-yl)phenoxy)-N-hydroxybenzamide] | – | – | 20 to 40 | 0 to 20 | – | – | – |
| CC(C)c1ccc(Oc2ccc(C(=O)NO)cn2)cc1 [Compound 272, N-hydroxy-6-(4-isopropylphenoxy)nicotinamide] | – | 0 to 20 | 0 to 20 | 0 to 20 | – | – | – |
| CCC(C)(C)c1ccc(Oc2ccc(C(=O)NO)cn2)cc1 [Compound 273, N-hydroxy-6-(4-(tert-pentyl)phenoxy)nicotinamide] | 0 to 20 | – | – | 0 to 20 | – | – | – |
| O=C(NO)c1ccc(Oc2ccc(C3CCCCC3)cc2)nc1 [Compound 284, 6-(4-Cyclohexylphenoxy)-N-hydroxynicotinamide] | – | – | 0 to 20 | 0 to 20 | – | – | – |
| O=C(NO)c1ccc(Oc2ccc(C3CC4CCC3CC4)cc2)nc1 (stereo not shown) [Compound 287, 6-(4-((1s,4s)-bicyclo[2.2.2]octan-2-yl)phenoxy)-N-hydroxynicotinamide] | 0 to 20 | 0 to 20 | 20 to 40 | 20 to 40 | – | – | – |
| O=C(NO)c1ccc(Oc2ccc(C34CC5CC(CC(C5)C3)C4)cc2)nc1 [Compound 288, 6-(4-((3r,5r,7r)-adamantan-1-yl)phenoxy)-N-hydroxynicotinamide] | – | – | 0 to 20 | 20 to 40 | – | – | – |
| CNC(=O)c1ccc(Oc2ccc(C(F)(F)F)cc2)nc1 [Compound 300, N-methyl-6-(4-(trifluoromethyl)phenoxy)nicotinamide] | – | 80 to 90 | – | 80 to 90 | – | – | – |
| CN(C)C(=O)c1ccc(Oc2ccc(C3CCCCC3)cc2)nc1 [Compound 334, 6-(4-cyclohexylphenoxy)-N,N-dimethylnicotinamide] | 60 to 70 | 80 to 90 | 80 to 90 | – | – | – | – |
| O=C(NO)c1ccc(Oc2ccc(C34CC5CC(CC(C5)C3)C4)cc2)c(F)c1 [Compound 544, 4-(4-(Adamantan-1-yl)phenoxy)-3-fluoro-N-hydroxybenzamide] | – | – | 20 to 40 | 0 to 20 | – | – | – |
| O=C(NO)c1cnc(Oc2ccc(C3CCCCC3)cc2)c(F)c1 [Compound 644, 6-(4-Cyclohexylphenoxy)-5-fluoro-N-hydroxynicotinamide] | 0 to 20 | – | 20 to 40 | 0 to 20 | – | – | – |
| Oc1ccc(C=Cc2cc(O)cc(O)c2)cc1 [RES, resveratrol, reference compound] | 40 | 50 | 80 | 90 | 0.4 ± 0.0 | 0.9 ± 0.0 | 0.9 ± 0.0 |
